{"source": "patent US20150072416A1", "about": "“METABOLITE FOR IMPROVING PRODUCTION, MAINTENANCE AND PROLIFERATION OF PLURIPOTENT STEM CELLS, COMPOSITION COMPRISING THE SAME, AND METHOD OF CULTURING PLURIPOTENT STEM CELL USING THE SAME” (KOREA RESEARCH INSTITUTE OF BIOSCIENCE AND BIOTENOLOGY, priority 2012, published 2015)", "key": {"[1]": {"tested_on": "human fibroblasts transfected with reprogramming factor OSKM", "test": "Senescence-associated beta-galactosidase staining and senescence-associated DNA damage staining during reprogramming", "assay_type": "cell-based", "details": "for decrease in number of senescent cells: 10 mM", "procedure": "On day 26 of induction of reprogramming, the cells were fixed with a fixation solution at room temperature for 10 minutes, and then stained with a β-galactosidase solution at room temperature for 15 minutes. Next, the DNA was stained with DAPI (4′,6-diamidino-2-phenylindole) for 5 minutes, and then the cells were imaged by phase-contrast and fluorescence microscopy. The number of cells having senescence (green) damaged DNA (blue combined points) was counted and quantified relative to the number of normal cells."}, "[2]": {"tested_on": "human embryonic stem cells and human induced pluripotent stem cells", "test": "Maintenance of undifferentiated state of pluripotent stem cells (morphology, AP staining)", "assay_type": "cell-based", "details": "for undifferentiated state in UM: 0.1 mM nicotinamide added to UM", "description": "Human embryonic stem cells (hESC) H9 (NIH Code, WA09; WiCell Research Institute, Madison, Wis.) and H1 (NIH Code, WA01; WiCell Research Institute) and induced pluripotent stem cells (hiPSC) were each cultured with hESC culture medium (unconditioned medium; UM) or MEF-CM (conditioned medium) on γ-irradiated MEFs (mouse embryonic fibroblasts) or on plates coated with Matrigel (BD Biosciences, Franklin Lakes, N.J.). The cultured human embryonic stem cells and induced pluripotent stem cells were treated with collagenase IV (1 mg/ml; Invitrogen) or dispase (1 mg/ml; Invitrogen) once a week and subcultured. MEF-CM was prepared as γ-irradiated MEF according to a known method (Xu C. Nat Biotechnol 19, 971-974) and supplemented with 8 ng/ml of bFGF. UM contained 80% DMEM/F12, 20% knockout serum replacement (KSR, Invitrogen, Carlsbad, Calif.), 1% non-essential amino acids (NEAA, Invitrogen), 1 mM L-glutamine (Invitrogen), 0.1 mM β-mercaptoethanol (Sigma, St. Louis, Mo.) and 6 ng/ml bFGF (basic fibroblast growth factor, Invitrogen). Particularly, for culture in the absence of feeder cells and serum, human embryonic stem cells and human induced pluripotent stem cells were cultured in mTeSR1 medium (StemCell Technologies). Human newborn foreskin fibroblasts (hFF, ATCC, catalog number CRL-2097; American Type Culture Collection, Manassas, Va.) were cultured in a DMEM medium containing 10% FBS (fetal bovine serum, Invitrogen), 1% non-essential amino acids, 1 mM L-glutamine and 0.1 mM β-mercaptoethanol.\nAP staining was performed using a commercial AP kit (Sigma) according to the manufacturer's instruction. Images of AP-positive cells were recorded with HP Scanjet G4010. Also, bight field images were obtained with an Olympus microscope (IX51, Olympus, Japan).\nIn order to verify the effect of nicotinamide on the maintenance of undifferentiated state of pluripotent stem cells, the present inventors performed the following experiment. While human embryonic stem cells and human pluripotent stem cells were cultured in MEF-CM or UM on feeder-free Matrigel, various NAD precursors including nicotinamide were added to the stem cells, and then the effects of the NAD precursors on the stem cells were verified by examining the morphological change and the expression pattern of AP that is a human embryonic stem cell-specific marker.\nIn addition, in order to examine the effects of nicotinamide at various concentrations, various concentrations of nicotinamide were added to UM, and the degrees of maintenance of undifferentiation of human embryonic stem cells and human induced pluripotent stem cells, which are pluripotent stem cells, were examined. […] However, it was shown that the addition of a low concentration (<0.01 mM) or high concentration (>5 mM) of nicotinamide could not maintain the undifferentiated state of pluripotent stem cells (FIG. 30).\nThe effect of nicotinamide effective for maintaining the undifferentiated state of human embryonic stem cells and human induced pluripotent stem cells, which are pluripotent stem cells, was verified under various conditions. […] In order to eliminate the use of feeder cell-derived factors and animal serum and ensure culture conditions including a medium (CDM) whose components are known, various concentrations of nicotinamide were added to mTeSR1 (CDM) without feeder cells, and the effects thereof were examined. As a result, it could be seen that the addition of 0.1 mM of nicotinamide was effective for maintaining the undifferentiated state of various human embryonic stem cell lines (H1 and H9) and the human induced pluripotent stem cell line (hiPS) (FIG. 31)."}, "p53, p21 and p16": {"tested_on": "p53, p21 and p16", "test": "Expression of senescence-associated signaling factors (immunostaining, Western blot, real-time PCR)", "assay_type": "cell-based, human", "procedure": "Total RNA was isolated from produced cells using an RNeasy Mini kit (Qiagen, Valencia, Calif.) and reverse-transcribed using a SuperScript First-strand synthesis system kit (Invitrogen) according to the manufacturer's instruction. Then, semi-quantitative RT-PCR was performed using a platinum Tag SuperMix kit (Invitrogen) under the following conditions: 94° C. for 3 minutes, and then 25-30 cycles, each consisting of 94° C. for 30 sec, 60° C. for 30 sec and 72° C. for 30 sec, followed by extension at 72° C. for 10 minutes.\nFor immunostaining, cells were seeded on Matrigel-coated 4-well Lab-Tek chamber slides (Nunc, Naperville, Ill.) and cultured for 5 days under the indicated conditions. […]\nCells were lysed with RIPA buffer (containing 50 mM Tris, pH 8.0, 150 mM NaCl, 1% NP-40, 0.1% SDS, 0.5% deoxycholic acid, 1 mM PMSF) and mixed with a protease inhibitor (Roche Applied Science, Indianapolis, Ind.) on ice for 15 minutes, followed by centrifugation at 20,000×g at 4° C. for 10 minutes. The supernatant was re-centrifuged for 10 minutes, and the protein concentration was measured using a BCA protein assay kit (Pierce, Rockford, Ill.). […] The density of the bands was analyzed using Image Gauge software (Fuji Photo Film GMBH, D) and normalized to the bands of the loading control (β-actin). […]"}}, "data": [{"smiles": "NC(=O)c1cccnc1", "note": "[nicotinamide]", "values": [{"measurement": "decrease in cellular senescence-associated DNA damage", "setting": "[1]; 1 mM, compared to control group", "value": "83.0±0.5", "unit": "%"}, {"measurement": "decrease in ratio of cells stained with senescence-associated beta-galactosidase", "setting": "[1]; 1 mM, day 19, compared to untreated group", "value": "88.1±1.4", "unit": "%"}, {"measurement": "decrease in ratio of cells stained with senescence-associated beta-galactosidase", "setting": "[1]; 1 mM, day 26, compared to untreated group", "value": "76.9±2.5", "unit": "%"}, {"measurement": "decrease in number of senescent cells", "setting": "[1]; day 19, compared to control group", "value": "76.1±1.4", "unit": "%"}, {"measurement": "decrease in number of senescent cells", "setting": "[1]; day 21, compared to control group", "value": "30.8±9.0", "unit": "%"}, {"measurement": "number of AP-positive cells when feeder cells were used", "setting": "[2]; 0.1 mM", "value": "most increased"}, {"measurement": "undifferentiated state in UM", "setting": "[2]", "value": "maintained in an undifferentiated state"}, {"measurement": "undifferentiated state in UM", "setting": "[2]; listed as Nam", "value": "most effectively maintained"}, {"measurement": "maintaining the undifferentiated state in mTeSR1 (CDM) without feeder cells", "setting": "[2]; 0.1 mM, H1, H9 and hiPS", "value": "effective"}, {"measurement": "induction of differentiation in UM, among NAD+ precursors and NAD+", "setting": "[2]; H9 in UM treated with nicotinamide (FIG. 29)", "value": "most effectively inhibited"}, {"measurement": "high concentration that could not maintain the undifferentiated state", "setting": "[2]; UM", "value": "> 5", "unit": "mM"}, {"measurement": "low concentration that could not maintain the undifferentiated state", "setting": "[2]; UM", "value": "< 0.01", "unit": "mM"}, {"measurement": "morphology of hESCs cultured in UM, in comparison with other NAD precursors", "setting": "[2]; UM containing nicotinamide (1 mM), 6 days, feeder-free Matrigel", "value": "showed the morphology of undifferentiated human embryonic stem cells"}, {"measurement": "nicotinamide concentration in UM conserving undifferentiated morphology and positive AP expression", "setting": "[2]; hESCs and hiPSCs cultured in UM", "value": "0.1-1 mM"}, {"measurement": "mRNA and protein expression levels of p53, p21 and p16", "setting": "p53, p21 and p16; 1 mM, reprogramming process", "value": "significantly decreased"}, {"measurement": "inhibition of expression of senescence factors p53, p27, p21 and p16", "setting": "p53, p21 and p16; high concentration (20 mM)", "value": "did not appear"}]}]}
